Results on 18 compounds are retold here after US9751837B2, “Kinase inhibitors” (RESPIVERT LIMITED, priority 2014, dated 2017).

One series has as its target GSK 3α (Homo sapiens (Human), UniProt P49840). In words: GSK 3α enzyme inhibition (Method 2), Z-LYTE FRET. The format is biochemical. The following applies: read-out: IC50 Values for Enzyme Inhibition GSK3α. As for the experimental part: The enzyme inhibitory activities of compounds disclosed herein are determined by FRET using synthetic peptides labelled with both donor and acceptor fluorophores (Z-LYTE, Invitrogen Ltd., Paisley, UK).
The following two assay variants can be used for determination of GSK 3α inhibition.
The inhibitory activities of compounds of the invention against the GSK 3α enzyme isoform (Invitrogen), are evaluated by determining the level of activation/phosphorylation of the target peptide. The GSK3-α protein (500 ng/mL, 2.5 μL) is mixed with the test compound (2.5 μL at either 4 μg/mL, 0.4 μg/mL, 0.04 μg/mL, or 0.004 μg/mL) for 2 hr at RT. The FRET peptide (8 μM, 2.5 μL), which is a phosphorylation target for GSK3α, and ATP (40 μM, 2.5 μL) are then added to the enzyme/compound mixture and the resulting mixture incubated for 1 hr. Development reagent (protease, 5 μL) is added for 1 hr prior to detection in a fluorescence microplate reader (Varioskan® Flash, ThermoFisher Scientific).
In all cases, the site-specific protease cleaves non-phosphorylated peptide only and eliminates the FRET signal. Phosphorylation levels of each reaction are calculated using the ratio of coumarin emission (donor) over fluorescein emission (acceptor), for which high ratios indicate high phosphorylation and low ratios indicate low phosphorylation levels.
This method follows the same steps as Method 1 above, but utilises a shorter period of mixing of the test compound (105 minutes instead of 2 hours) with the GSK3-α protein. In addition, the concentrations of test compound employed are either 10 μg/mL, 1 μg/mL, 0.1 μg/mL, or 0.01 μg/mL

Series [1] in a line: Solubility in fasted-state simulated colonic fluid (FaSSCoF) at pH 6.5. Type of series: physicochemical. The following applies: 25 °C, pH 6.5, fassgf or other biorelevant, thermodynamic from solid. Put shortly: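 Compounds were suspended at up to 2-10 mg/mL in pH 6.5 Tris/maleate FaSSCoF containing a five-bile-acid mixture, phosphatidylcholine, palmitic acid and BSA. After 24 h equilibration at 25° C the suspension was filtered and the filtrate quantified by HPLC peak area against a standard.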

A further series has as its system Jurkat cells. Description: Cell cytotoxicity assay (r). The following applies: 24 hours. Type of series: cell-based, human. Put shortly:
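Jurkat cells (1×10^5/well, RPMI + 10% FBS) exposed to compound at 20, 5 or 1 μg/mL final (1.0% DMSO control) for 24 h at 37° C., 5% CO2. Then stained with 7.5 μg/mL propidium iodide for 15 min. % viability = PI-negative cells by flow cytometry, normalized to DMSO.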

[2] abbreviates: pH 6.5 FaSSCoF Solubility (mg/mL) Run 1.
[3] abbreviates: pH 6.5 FaSSCoF Solubility (mg/mL) Run 2.

Converted amounts (≈) assume the structure as drawn.

Chain of GSK 3α (P49840 whole entry): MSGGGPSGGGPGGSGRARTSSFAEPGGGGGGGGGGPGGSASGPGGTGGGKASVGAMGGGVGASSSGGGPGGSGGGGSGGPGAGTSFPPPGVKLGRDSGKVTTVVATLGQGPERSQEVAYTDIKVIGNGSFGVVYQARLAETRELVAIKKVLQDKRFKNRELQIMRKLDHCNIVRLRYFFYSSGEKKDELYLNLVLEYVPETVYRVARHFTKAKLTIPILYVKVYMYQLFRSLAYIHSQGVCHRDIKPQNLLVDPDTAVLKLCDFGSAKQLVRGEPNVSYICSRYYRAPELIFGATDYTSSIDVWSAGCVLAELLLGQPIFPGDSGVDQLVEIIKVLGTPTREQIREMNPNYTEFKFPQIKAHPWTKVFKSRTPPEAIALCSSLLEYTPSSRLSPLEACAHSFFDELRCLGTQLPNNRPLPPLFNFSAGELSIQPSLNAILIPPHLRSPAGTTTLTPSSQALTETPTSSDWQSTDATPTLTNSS

On to `COCCOCCOCC[S+]([O-])c1ccc(Nc2cc(Oc3ccc(NC(=O)Nc4cc(C(C)(C)C)cc(NS(C)(=O)=O)c4OC)c4ccccc34)ccn2)cc1OC` (centres unmarked) [Example 11, N-(5-(tert-Butyl)-2-methoxy-3-(3-(4-((2-((3-methoxy-4-((2-(2-(2-methoxyethoxy)ethoxy)ethyl)sulfinyl)phenyl)amino)pyridin-4-yl)oxy)naphthalen-1-yl)ureido)phenyl)methanesulfonamide], for which, on GSK 3α, the IC50 (in general, the point on the concentration scale where inhibition reaches its midpoint) is 1.3 µM. The same measure, in the same setting: under `COc1cc(Nc2cc(Oc3ccc(NC(=O)Nc4cc(C(C)(C)C)cc(NS(C)(=O)=O)c4OC)c4ccccc34)ccn2)ccc1C(=O)NCCN1CCOCC1(C)C` [17(k), 4-[[4-[[4-[[5-tert-butyl-3-(methanesulfonamido)-2-methoxy-phenyl]carbamoylamino]-1-naphthyl]oxy]-2-pyridyl]amino]-N-[2-(3,3-dimethylmorpholin-4-yl)ethyl]-2-methoxy-benzamide] stands greater than 11.9 µM. Still for that read-out and setting: under `COc1cc(Nc2cc(Oc3ccc(NC(=O)Nc4cc(C(C)(C)C)cc(NS(C)(=O)=O)c4OC)c4ccccc34)ccn2)ccc1C(=O)NCC(=O)N1CCOCC1` [17(e), 4-[[4-[[4-[[5-tert-butyl-3-(methanesulfonamido)-2-methoxy-phenyl]carbamoylamino]-1-naphthyl]oxy]-2-pyridyl]amino]-2-methoxy-N-(2-morpholino-2-oxo-ethyl)benzamide] stands 7.42 µM; under `COc1cc(Nc2cc(Oc3ccc(NC(=O)Nc4cc(C(C)(C)C)cc(NS(C)(=O)=O)c4OC)c4ccccc34)ccn2)ccc1C(=O)NCCN1CCCC1` [17(q), 4-[[4-[[4-[[5-tert-butyl-3-(methanesulfonamido)-2-methoxy-phenyl]carbamoylamino]-1-naphthyl]oxy]-2-pyridyl]amino]-2-methoxy-N-(2-pyrrolidin-1-ylethyl)benzamide], 1.98 µM. Same read-out and setting: under `COCCOCCOCCOc1ccc(Nc2cc(Oc3ccc(NC(=O)Nc4cc(C(C)(C)C)cc(NS(C)(=O)=O)c4OC)c4ccccc34)ccn2)cc1C#N` [Example 8, N-(5-(tert-Butyl)-3-(3-(4-((2-((3-cyano-4-(2-(2-(2-methoxyethoxy)ethoxy)ethoxy)phenyl)amino)pyridin-4-yl)oxy)naphthalen-1-yl)ureido)-2-methoxyphenyl)methanesulfonamide] stands 3.77 µM; under `COCCOCCOC[C@H](C)NC(=O)c1ccc(Nc2cc(Oc3ccc(NC(=O)Nc4cc(C(C)(C)C)cc(NS(C)(=O)=O)c4OC)c4ccccc34)ccn2)cc1OC` [17(h), 4-[[4-[[4-[[5-tert-butyl-3-(methanesulfonamido)-2-methoxy-phenyl]carbamoylamino]-1-naphthyl]oxy]-2-pyridyl]amino]-2-methoxy-N-[(1S)-2-[2-(2-methoxyethoxy)ethoxy]-1-methyl-ethyl]benzamide], 4.39 µM.

As for `COc1cc(Nc2cc(Oc3ccc(NC(=O)Nc4cc(C(C)(C)C)cc(NS(C)(=O)=O)c4OC)c4ccccc34)ccn2)ccc1C(=O)N(C)CCN1CCOCC1` [17(ab), 4-[[4-[[4-[[5-tert-butyl-3-(methanesulfonamido)-2-methoxy-phenyl]carbamoylamino]-1-naphthyl]oxy]-2-pyridyl]amino]-2-methoxy-N-methyl-N-(2-morpholinoethyl)benzamide], at GSK 3α, the IC50 stood at 0.596 µM.

For `COc1cc(Nc2cc(Oc3ccc(NC(=O)Nc4cc(C(C)(C)C)cc(NS(C)(=O)=O)c4OC)c4ccccc34)ccn2)ccc1S(=O)(=O)N(C)CCN1CCOCC1` [17(o), 1-[5-tert-butyl-3-(methanesulfonamido)-2-methoxy-phenyl]-3-[4-[[2-[3-methoxy-4-[methyl(2-morpholinoethyl)sulfamoyl]anilino]-4-pyridyl]oxy]-1-naphthyl]urea], the half-maximal inhibitory concentration (IC50) at GSK 3α amounted to 3.32 µM. For the compound `COc1cc(Nc2nccc(Oc3ccc(NC(=O)Nc4cc(C(C)(C)C)cc(NS(C)(=O)=O)c4OC)c4ccccc34)n2)ccc1C(=O)NCCN1CCOCC1` [17(i), 4-[[4-[[4-[[5-tert-butyl-3-(methanesulfonamido)-2-methoxy-phenyl]carbamoylamino]-1-naphthyl]oxy]pyrimidin-2-yl]amino]-2-methoxy-N-(2-morpholinoethyl)benzamide], the IC50 on GSK 3α was 0.594 µM. With `COc1cc(Nc2cc(Oc3ccc(NC(=O)Nc4cc(C(C)(C)C)cc(NS(C)(=O)=O)c4OC)c4ccccc34)ccn2)ccc1C(=O)NCCN1CCC(F)(F)CC1` [17(al), 4-[[4-[[4-[[5-tert-butyl-3-(methanesulfonamido)-2-methoxy-phenyl]carbamoylamino]-1-naphthyl]oxy]-2-pyridyl]amino]-N-[2-(4,4-difluoro-1-piperidyl)ethyl]-2-methoxy-benzamide], at GSK 3α, the IC50 is 11.8 µM.

As to `COc1cc(Nc2cc(Oc3ccc(NC(=O)Nc4cc(C(C)(C)C)cc(NS(C)(=O)=O)c4OC)c4ccccc34)ccn2)cc(OC)c1C(=O)O` [Example 46, 4-[[4-[[4-[[5-tert-Butyl-3-(methanesulfonamido)-2-methoxyphenyl]carbamoylamino]-1-naphthyl]oxy]-2-pyridyl]amino]-2,6-dimethoxybenzoic acid], at GSK 3α, the IC50 came to 0.225 µM. The same measure, in the same setting: under `COc1cc(Nc2cc(Oc3ccc(NC(=O)Nc4cc(C(C)(C)C)cc(NS(C)(=O)=O)c4OC)c4ccccc34)ccn2)ccc1C(=O)NCCN1CCOC(C)(C)C1` [17(d), 4-[[4-[[4-[[5-tert-butyl-3-(methanesulfonamido)-2-methoxy-phenyl]carbamoylamino]-1-naphthyl]oxy]-2-pyridyl]amino]-N-[2-(2,2-dimethylmorpholin-4-yl)ethyl]-2-methoxy-benzamide] stands greater than 11.9 µM. Same read-out and setting: as for `COc1cc(Nc2cc(Oc3ccc(NC(=O)Nc4cc(C(C)(C)C)cc(NS(C)(=O)=O)c4OC)c4ccccc34)ccn2)ccc1C(=O)NCCN1CCCOCC1` [17(ai), 4-[[4-[[4-[[5-tert-butyl-3-(methanesulfonamido)-2-methoxy-phenyl]carbamoylamino]-1-naphthyl]oxy]-2-pyridyl]amino]-2-methoxy-N-[2-(1,4-oxazepan-4-yl)ethyl]benzamide], the figure is 4.48 µM. On the same count and under the same terms, as for `COc1cc(Nc2cc(Oc3ccc(NC(=O)Nc4cc(C(C)(C)C)cc(NS(C)(=O)=O)c4OC)c4ccccc34)ccn2)ccc1C(=O)NCCN1CCNCC1` [17(w), 4-[[4-[[4-[[5-tert-butyl-3-(methanesulfonamido)-2-methoxy-phenyl]carbamoylamino]-1-naphthyl]oxy]-2-pyridyl]amino]-2-methoxy-N-(2-piperazin-1-ylethyl)benzamide], the figure is 0.674 µM; as for `COCCOCCOCCNC(=O)c1ccc(Nc2cc(Oc3ccc(NC(=O)Nc4cc(C(C)(C)C)cc(C(N)=O)c4OC)c4ccccc34)ccn2)cc1OC` [Example 6, 4-((4-((4-(3-(5-(tert-Butyl)-3-carbamoyl-2-methoxyphenyl)ureido)naphthalen-1-yl)oxy)pyridin-2-yl)amino)-2-methoxy-N-(2-(2-(2-methoxyethoxy)ethoxy)ethyl)benzamide], 1.9 µM; as for `COc1cc(Nc2cc(Oc3ccc(NC(=O)Nc4cc(C(C)(C)C)cc(NS(C)(=O)=O)c4OC)c4ccccc34)ccn2)ccc1C(=O)NCCN1C[C@@H](C)O[C@@H](C)C1` [17(c), 4-[[4-[[4-[[5-tert-butyl-3-(methanesulfonamido)-2-methoxy-phenyl]carbamoylamino]-1-naphthyl]oxy]-2-pyridyl]amino]-N-[2-[(2S,6R)yl]ethyl]-2-methoxy-benzamide], greater than 11.9 µM.

In the case of `COc1cc(Nc2nccc(Oc3ccc(NC(=O)Nc4cc(C(C)(C)C)cc(NS(C)(=O)=O)c4OC)c4ccccc34)n2)ccc1C(=O)NCCN1CCN(C)CC1` [17(aq), 4-((4-((4-(3-(5-(tert-Butyl)-2-methoxy-3-(methylsulfonamido)phenyl)ureido)naphthalen-1-yl)oxy)pyrimidin-2-yl)amino)-2-methoxy-N-(2-(4-methylpiperazin-1-yl)ethyl)benzamide], the thermodynamic solubility at 24 h in series [1] (setting [2]) and in series [1] (setting [3]) was less than 1 µg/mL in each case. The “% Viability at 5 μg/mL” value in the series with Jurkat cells (5 μg/mL) worked out at 0.2%. Further, the “% Viability at 20 μg/mL” value with Jurkat cells was found to be 1.3%. In the case of `COc1cc(Nc2nccc(Oc3ccc(NC(=O)Nc4cc(C(C)(C)C)cc(NS(C)(=O)=O)c4OC)c4ccccc34)n2)ccc1C(=O)NCCC1CCN(C)CC1` [17(an), 4-((4-((4-(3-(5-(tert-butyl)-2-methoxy-3-(methylsulfonamido)phenyl)ureido)naphthalen-1-yl)oxy)pyrimidin-2-yl)amino)-2-methoxy-N-(2-(1-methylpiperidin-4-yl)ethyl)benzamide], the solubility (thermodynamic) (in general, the concentration in solution at equilibrium with solid) at 24 h was 47 µg/mL (≈ 57 µM) in series [1] (setting [2]) and 49 µg/mL (≈ 59.4 µM) in series [1] (setting [3]). Besides, in the series on Jurkat cells, the “% Viability at 20 μg/mL” value is listed as 1.1%.
